GI50 and TGI data for eight compounds are collected here from PubChem BioAssay (NCI).

Several values for one entry are separate records, joined by “and”; a condition that tells them apart may be missing. Equal values may be shown once.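 Five compound concentrations were applied to cells in 96-well plates for 48 hours; endpoints were derived by simple linear interpolation of the resulting dose-response curve. Here, GI50 denotes the concentration required for 50% inhibition of growth. Definition used: TGI = concentration required for complete inhibition of growth.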 A value given as a limit tells only on which side of the number the result lay.

Some test systems named below: MDA-MB-435; HS 578T breast; SW-620 colon; HOP-62 NSCLC; SF-295 CNS; HOP-92 NSCLC; HCT-116 colon; U251 CNS; SF-539 CNS; NCI-H226 lung.
What all share (assay): growth of human tumour cells (NCI), 48 h

Take `CCNc1cc(-c2cccc(OC(F)(F)F)c2)nc2ccc(N3CCCC3)cc12`: the GI50 in the test on MDA-MB-435 was 1.56 µM; in the test with HS 578T breast, 1.72 µM; in the test with SW-620 colon, 1.6 µM; with HOP-62 NSCLC, 1.62 µM; in the test with SF-295 CNS it was 1.82 µM; with HOP-92 NSCLC, 1.21 µM. Moreover, the GI50 is 1.52 µM in the test on HCT-116 colon, 1.68 µM in the test with U251 CNS, 1.73 µM in the test with SF-539 CNS and 1.67 µM in the test on NCI-H226 lung. For the same compound, the TGI stood at 3.05 µM with MDA-MB-435; 3.96 µM in the test with HS 578T breast; 3.47 µM in the test on SW-620 colon; 3.16 µM in the test on HOP-62 NSCLC; 3.6 µM with SF-295 CNS; 3.24 µM in the test with HOP-92 NSCLC. Besides, the TGI was determined as 3.43 µM in the test on HCT-116 colon, 3.62 µM in the test with U251 CNS, 3.36 µM with SF-539 CNS and 4.53 µM in the test with NCI-H226 lung.

With `Cn1c(C(=O)c2ccncc2)cc2ccccc21`, the GI50 with MDA-MB-435 was above 100 µM; with HS 578T breast it was 65 µM; in the test on SW-620 colon it was 52.8 µM; in the test on HOP-62 NSCLC, above 100 µM; with SF-295 CNS, above 100 µM; with HOP-92 NSCLC, 40.2 µM. The GI50 is 72 µM in the test on HCT-116 colon, above 100 µM in the test with U251 CNS, 87.5 µM in the test on SF-539 CNS and above 100 µM in the test on NCI-H226 lung. The TGI with MDA-MB-435, in the test on HS 578T breast, in the test with SW-620 colon, with HOP-62 NSCLC, in the test on SF-295 CNS and with HOP-92 NSCLC was above 100 µM in each case. Also, the TGI in the test with HCT-116 colon, in the test with U251 CNS, with SF-539 CNS and in the test on NCI-H226 lung was above 100 µM in each case.

`CC(C)c1c(-c2ccccc2)nc2c(C#N)c[nH]n2c1=O`: the GI50 in the test on MDA-MB-435 is 31.1 µM; in the test with HS 578T breast it was 29.7 µM; in the test with SW-620 colon it was 35.3 µM; in the test with HOP-62 NSCLC, 25.4 µM; with SF-295 CNS, 28.7 µM; with HOP-92 NSCLC it was 7.85 µM. For the same compound, the GI50 with HCT-116 colon was 30.5 µM; in the test with U251 CNS it was 33.8 µM; with SF-539 CNS it was 29.4 µM; in the test with NCI-H226 lung, 27 µM. Also, the TGI with MDA-MB-435 was above 100 µM; in the test on HS 578T breast, 99.6 µM; with SW-620 colon, above 100 µM; with HOP-62 NSCLC it was above 95.7 µM; with SF-295 CNS, above 84 µM; in the test on HOP-92 NSCLC, 49.6 µM. The TGI was above 100 µM with HCT-116 colon, above 100 µM with U251 CNS, above 100 µM in the test with SF-539 CNS and above 87.7 µM in the test with NCI-H226 lung.

Regarding `CC1CCC2(NC1)OC1CC3C4CC=C5CC(O)CCC5(C)C4CCC3(C)C1C2C` (configuration not stated), the GI50 is 48.7 µM and 16.6 µM in the test with MDA-MB-435; 27.4 µM and 9.34 µM in the test on HOP-62 NSCLC; 23.7 µM and 4.92 µM in the test with U251 CNS. Moreover, the TGI was above 100 µM in the test on MDA-MB-435; > 100 µM and 37 µM with HS 578T breast; above 100 µM with SW-620 colon; 92.4 µM and 46.2 µM in the test on HOP-62 NSCLC; 92.7 µM and > 64.3 µM in the test on SF-295 CNS; 49.5 µM and 46.2 µM with HOP-92 NSCLC. In addition, the TGI in the test with HCT-116 colon is 53.5 µM and > 68.1 µM; with U251 CNS, 64.7 µM and 23.5 µM; in the test with SF-539 CNS, 40.1 µM and 29.4 µM; in the test on NCI-H226 lung, > 100 µM and 66.5 µM.

Take `O=C(O)c1ccc(CI)cc1`: the TGI was 54.9 µM with MDA-MB-435; above 100 µM in the test with HS 578T breast; 33.7 µM with SW-620 colon; 36.1 µM in the test with HOP-62 NSCLC; 21.6 µM in the test with SF-295 CNS; 31 µM in the test on HOP-92 NSCLC. Moreover, the TGI in the test on HCT-116 colon was 28.1 µM; with U251 CNS, 20.8 µM; in the test on SF-539 CNS, 32.1 µM; in the test on NCI-H226 lung it was 44.1 µM.

Regarding `COc1ccc2cc(/C=C/C(=O)c3ccc(Cl)cc3Cl)ccc2c1`, the GI50 in the test on MDA-MB-435 was 25.4 µM; with HS 578T breast, 39.3 µM; in the test on SW-620 colon, 24.1 µM; in the test on HOP-62 NSCLC it was 39.3 µM; with SF-295 CNS, 83.3 µM; in the test on HOP-92 NSCLC it was 97.7 µM. In addition, the GI50 with HCT-116 colon is 16.9 µM; in the test on U251 CNS, 27.9 µM; in the test with SF-539 CNS it was 72.9 µM; with NCI-H226 lung, 30.4 µM. Also, the TGI in the test with MDA-MB-435 was 75.3 µM; with HS 578T breast, above 100 µM; with SW-620 colon it was 67 µM; in the test with HOP-62 NSCLC, above 100 µM; with SF-295 CNS, above 100 µM; with HOP-92 NSCLC it was above 100 µM. In addition, the TGI was 46 µM in the test on HCT-116 colon, above 100 µM in the test with U251 CNS, above 100 µM with SF-539 CNS and above 100 µM in the test with NCI-H226 lung.

Take `COc1ccc(-c2ccncc2)cc1C(N)=O`: the GI50 in the test on MDA-MB-435, in the test on HS 578T breast, in the test on SW-620 colon, with HOP-62 NSCLC, in the test with SF-295 CNS and with HOP-92 NSCLC was above 25 µM each time. For the same compound, the GI50 in the test on HCT-116 colon, with U251 CNS, with SF-539 CNS and with NCI-H226 lung was above 25 µM throughout. Further, the TGI with MDA-MB-435, in the test on HS 578T breast, in the test on SW-620 colon, in the test with HOP-62 NSCLC, with SF-295 CNS and in the test on HOP-92 NSCLC was above 25 µM each time. The TGI with HCT-116 colon, in the test with U251 CNS, with SF-539 CNS and with NCI-H226 lung was above 25 µM each time.

As for `O=[N+]([O-])c1cc(Cl)c2[nH]c3c(Cl)cc([N+](=O)[O-])cc3c2c1`, the GI50 with MDA-MB-435 was 0.31 µM; with HS 578T breast, 0.609 µM; in the test on SW-620 colon it was 0.576 µM; with HOP-62 NSCLC it was 0.971 µM; in the test with SF-295 CNS, 0.229 µM; with HOP-92 NSCLC, 0.0596 µM. In addition, the GI50 is 0.263 µM with HCT-116 colon, 0.286 µM with U251 CNS, 0.653 µM in the test on SF-539 CNS and 0.393 µM in the test with NCI-H226 lung. Also, the TGI in the test with HS 578T breast was above 100 µM; with SW-620 colon it was above 100 µM; with HOP-62 NSCLC, above 38.4 µM; with SF-295 CNS, 1.99 µM; in the test with HOP-92 NSCLC it was 0.405 µM; with HCT-116 colon, 7.12 µM. For the same compound, the results for the TGI with U251 CNS, with SF-539 CNS and with NCI-H226 lung were 5.43 µM, above 92.2 µM and above 100 µM, respectively.
